Experimental data: ChEMBL document CHEMBL1142222, “A-803467, a potent and selective Nav1.8 sodium channel blocker, attenuates neuropathic and inflammatory pain in the rat” (Proc Natl Acad Sci U S A, 2007)
Active and inactive are the calls of the source. The rule behind the calls is not given here.

How the values were obtained:
[1] = test system: Rattus norvegicus; test: Analgesic activity in ip dosed rat chronic constriction injury model of mechanical allodynia; format: functional
[2] = test system: Rattus norvegicus; test: Analgesic activity in rat chronic constriction injury model of mechanical allodynia at 100 mg/kg, ip; format: functional; conditions: route intraperitoneal
[3] = test system: Rattus norvegicus; test: Analgesic activity in ip dosed rat chronic constriction injury model of cold allodynic neuropathic pain; format: functional
[4] = test system: Rattus norvegicus; test: Analgesic activity in rat vincristine-induced mechanical allodynic neuropathic pain at 100 mg/kg, ip; format: functional; conditions: route intraperitoneal
[5] = test system: Rattus norvegicus; test: Analgesic activity in ip dosed rat skin incision model of post-operative pain after 2 hrs; format: functional
[6] = test system: Rattus norvegicus; test: Analgesic activity in rat skin incision model of post-operative pain at 100 mg/kg, ip after 2 hrs; format: functional; conditions: route intraperitoneal
[7] = test system: Rattus norvegicus; test: Analgesic activity in rat skin incision model of post-operative pain at 100 mg/kg, ip after 24 hrs; format: functional; conditions: route intraperitoneal
[8] = test system: Rattus norvegicus; test: Analgesic activity in ip dosed rat cyclophosphamide induced cyctitis model; format: functional
[9] = test system: Rattus norvegicus; test: Analgesic activity in ip dosed rat colonic distension model; format: functional
[10] = test system: Rattus norvegicus; test: Analgesic activity in rat colonic distension model at 100 mg/kg, ip; format: functional; conditions: route intraperitoneal
[11] = test system: Rattus norvegicus; test: Motor effect in rat assessed as locomotory activity at 300 mg/kg, ip; format: functional; conditions: route intraperitoneal
[12] = test system: Rattus norvegicus; test: Motor effect in rat by rotarod test at 300 mg/kg, ip; format: functional; conditions: route intraperitoneal
[13] = target: 5-hydroxytryptamine receptor 2C (Homo sapiens, UniProt P28335); test: Displacement of [3H]mesulergine from 5HT2C receptor
[14] = target: 5-hydroxytryptamine receptor 3A (Homo sapiens, UniProt P46098); test: Displacement of [3H]BRL43694 from 5HT3 receptor
[15] = target: 5-hydroxytryptamine receptor 7 (Homo sapiens, UniProt P34969); test: Displacement of [3H]LSD from 5HT7 receptor
[16] = target: Sigma non-opioid intracellular receptor 1 (Homo sapiens, UniProt Q99720); test: Displacement of [3H]pentazocine from sigma1 receptor
[17] = target: T1, Sodium channel protein type 10 subunit alpha (Rattus norvegicus, UniProt Q62968); test: Inhibition of recombinant rat Nav1.8 sodium channel assessed as blockade of TTXR current by patch clamp method
[18] = test system: DRG neuron; test: Suppression of spontaneous firing of rat DRG neurons at 0.3 uM; format: functional, cell-based
[19] = Volume of distribution in rat; format: ADME, organism-based; conditions: in vivo, read-out: Vbeta
[20] = Elimination half life in iv dosed rat; format: ADME, organism-based; conditions: in vivo
[21] = Cmax in rat at 10 mg/kg, po; format: ADME, organism-based; parameters: dose 10 mg/kg, route oral; conditions: in vivo
[22] = Tmax in rat at 10 mg/kg, po; format: ADME, organism-based; parameters: dose 10 mg/kg, route oral; conditions: in vivo
[23] = target: Voltage-dependent N-type calcium channel subunit alpha-1B (Homo sapiens, UniProt Q00975); test: Inhibition of Cav2.2 channel
[24] = test system: DRG neuron; test: Suppression of evoked action potential firing in rat DRG neurons at 0.1 uM; format: functional
[25] = Tmax in rat at 10 mg/kg, ip; format: ADME, organism-based; parameters: dose 10 mg/kg, route intraperitoneal; conditions: in vivo
[26] = Protein binding in rat plasma; format: ADME, cell-free; conditions: read-out: PPB (converted)
[27] = organism: Rattus norvegicus; test: Analgesic activity in rat spinal nerve ligation model at 200 to 300 nM; format: functional
[28] = test system: Rattus norvegicus; test: Antinociceptive activity in rat assessed as reduction of spontaneous firing of spinal dorsal horn wide dynamic range neurons at 20 mg/kg, iv; format: functional, Dorsal horn of spinal cord; parameters: scale not given: the % may be the effect or the level left
[29] = test system: Rattus norvegicus; test: Antinociceptive activity in rat assessed as reduction of von Frey evoked firing of spinal dorsal horn wide dynamic range neurons at 20 mg/kg, iv; format: functional, Dorsal horn of spinal cord; parameters: scale not given: the % may be the effect or the level left
[30] = test system: Rattus norvegicus; test: Analgesic activity in rat acute mechanical stimulation nociception model assessed as paw withdrawal latency at 100 mg/kg, ip; format: functional; conditions: route intraperitoneal
[31] = test system: Rattus norvegicus; test: Analgesic activity in ip dosed rat formalin flinching inflammatory pain model; format: functional
[32] = test system: Rattus norvegicus; test: Analgesic activity in rat capsaicn induced mechanical allodynia model at 300 mg/kg, ip; format: functional; conditions: route intraperitoneal
[33] = test system: Rattus norvegicus; test: Analgesic activity in ip dosed rat carrageenan-induced […] pain model; format: functional
[34] = test system: Rattus norvegicus; test: Analgesic activity in ip dosed rat complete Freund's adjuvant-induced thermal hyperalgesia model assessed as paw withdrawal latency after 4 days; format: functional; conditions: 96 h
[35] = test system: Rattus norvegicus; test: Motor effect in rat assessed as latency to fall at 300 mg/kg, ip by edge balance test; format: functional; conditions: route intraperitoneal
[36] = target: Adenosine receptor A1 (Homo sapiens, UniProt P30542); test: Displacement of [3H]DPCPX from adenosine A1 receptor
[37] = Displacement of [3H]prazosin from adrenergic alpha-1 receptor
[38] = target: Alpha-2A adrenergic receptor (Homo sapiens, UniProt P08913); test: Displacement of [3H]RX821002 from adrenergic alpha-2 receptor
[39] = target: ADRB1 (Homo sapiens, UniProt P08588); test: Displacement of [3H](-)CGP-12177 from adrenergic beta-1 receptor
[40] = target: Endothelin-1 receptor (Homo sapiens, UniProt P25101); test: Displacement of [125I]endothelin-1 from endothelin ETA receptor
[41] = target: D(1A) dopamine receptor (Homo sapiens, UniProt P21728); test: Displacement of [3H]SCH-23390 from dopamine D1 receptor
[42] = target: T1, Sodium channel protein type 10 subunit alpha; test: Inhibition of Nav1.8 channel in rat dorsal root ganglion neurons assessed as blockade of TTX-R current at -100 mV by patch clamp method; format: tissue-based
[43] = target: T2, Sodium channel protein type 2 subunit alpha (Homo sapiens, UniProt Q99250); test: Inhibition of human Nav1.2 channel expressed in HEK293 cells at -120 mV by patch clamp method; format: cell-based
[44] = target: T2, Sodium channel protein type 2 subunit alpha; test: Inhibition of human Nav1.2 channel expressed in HEK293 cells at -60 mV by patch clamp method; format: cell-based
[45] = target: Sodium channel protein type 3 subunit alpha (Homo sapiens, UniProt Q9NY46); test: Inhibition of human Nav1.3 channel expressed in HEK293 cells at -60 mV by patch clamp method; format: cell-based
[46] = test system: Rattus norvegicus; test: Analgesic activity in ip dosed rat complete Freund's adjuvant-induced mechanical hyperalgesia model assessed as paw withdrawal latency after 4 days; format: functional; conditions: 96 h
[47] = target: D(4) dopamine receptor (Homo sapiens, UniProt P21917); test: Displacement of [3H]spiperone from dopamine D4.4 receptor
[48] = target: Histamine H2 receptor (Homo sapiens, UniProt P25021); test: Displacement of [125I]APT from histamine H2 receptor
[49] = target: Muscarinic acetylcholine receptor M1 (Homo sapiens, UniProt P11229); test: Displacement of [3H]pirezepine from muscarinic M1 receptor
[50] = target: Muscarinic acetylcholine receptor M3 (Homo sapiens, UniProt P20309); test: Displacement of [3H]4DAMP from muscarinic M3 receptor
[51] = target: Muscarinic acetylcholine receptor M4 (Homo sapiens, UniProt P08173); test: Displacement of [3H]4DAMP from muscarinic M4 receptor
[52] = target: Delta-type opioid receptor (Homo sapiens, UniProt P41143); test: Displacement of [3H]DADLE from opioid delta receptor
[53] = target: Nociceptin receptor (Homo sapiens, UniProt P41146); test: Displacement of [3H]nociceptin from ORL1 receptor
[54] = Displacement of [3H]PACAP1-27 from PACAP PAC1 receptor
[55] = target: P2X purinoceptor 2 (Homo sapiens, UniProt Q9UBL9); test: Displacement of [3H]alpha,beta-methyl ATP from P2X receptor
Sequence of P2X purinoceptor 2 (Q9UBL9 whole entry): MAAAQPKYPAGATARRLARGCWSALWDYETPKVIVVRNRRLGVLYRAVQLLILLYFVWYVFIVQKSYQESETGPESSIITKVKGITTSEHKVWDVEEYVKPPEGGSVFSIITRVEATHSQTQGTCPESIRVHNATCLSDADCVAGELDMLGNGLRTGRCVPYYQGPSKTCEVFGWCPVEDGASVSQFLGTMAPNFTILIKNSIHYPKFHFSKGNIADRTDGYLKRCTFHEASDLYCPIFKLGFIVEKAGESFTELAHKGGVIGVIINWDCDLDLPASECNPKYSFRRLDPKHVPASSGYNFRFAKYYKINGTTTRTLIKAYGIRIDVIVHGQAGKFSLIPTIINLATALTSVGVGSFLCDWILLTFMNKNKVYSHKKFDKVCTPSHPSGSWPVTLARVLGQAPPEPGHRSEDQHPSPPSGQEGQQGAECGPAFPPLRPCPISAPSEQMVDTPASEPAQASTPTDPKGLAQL

T2 sequence (Q99250 whole entry): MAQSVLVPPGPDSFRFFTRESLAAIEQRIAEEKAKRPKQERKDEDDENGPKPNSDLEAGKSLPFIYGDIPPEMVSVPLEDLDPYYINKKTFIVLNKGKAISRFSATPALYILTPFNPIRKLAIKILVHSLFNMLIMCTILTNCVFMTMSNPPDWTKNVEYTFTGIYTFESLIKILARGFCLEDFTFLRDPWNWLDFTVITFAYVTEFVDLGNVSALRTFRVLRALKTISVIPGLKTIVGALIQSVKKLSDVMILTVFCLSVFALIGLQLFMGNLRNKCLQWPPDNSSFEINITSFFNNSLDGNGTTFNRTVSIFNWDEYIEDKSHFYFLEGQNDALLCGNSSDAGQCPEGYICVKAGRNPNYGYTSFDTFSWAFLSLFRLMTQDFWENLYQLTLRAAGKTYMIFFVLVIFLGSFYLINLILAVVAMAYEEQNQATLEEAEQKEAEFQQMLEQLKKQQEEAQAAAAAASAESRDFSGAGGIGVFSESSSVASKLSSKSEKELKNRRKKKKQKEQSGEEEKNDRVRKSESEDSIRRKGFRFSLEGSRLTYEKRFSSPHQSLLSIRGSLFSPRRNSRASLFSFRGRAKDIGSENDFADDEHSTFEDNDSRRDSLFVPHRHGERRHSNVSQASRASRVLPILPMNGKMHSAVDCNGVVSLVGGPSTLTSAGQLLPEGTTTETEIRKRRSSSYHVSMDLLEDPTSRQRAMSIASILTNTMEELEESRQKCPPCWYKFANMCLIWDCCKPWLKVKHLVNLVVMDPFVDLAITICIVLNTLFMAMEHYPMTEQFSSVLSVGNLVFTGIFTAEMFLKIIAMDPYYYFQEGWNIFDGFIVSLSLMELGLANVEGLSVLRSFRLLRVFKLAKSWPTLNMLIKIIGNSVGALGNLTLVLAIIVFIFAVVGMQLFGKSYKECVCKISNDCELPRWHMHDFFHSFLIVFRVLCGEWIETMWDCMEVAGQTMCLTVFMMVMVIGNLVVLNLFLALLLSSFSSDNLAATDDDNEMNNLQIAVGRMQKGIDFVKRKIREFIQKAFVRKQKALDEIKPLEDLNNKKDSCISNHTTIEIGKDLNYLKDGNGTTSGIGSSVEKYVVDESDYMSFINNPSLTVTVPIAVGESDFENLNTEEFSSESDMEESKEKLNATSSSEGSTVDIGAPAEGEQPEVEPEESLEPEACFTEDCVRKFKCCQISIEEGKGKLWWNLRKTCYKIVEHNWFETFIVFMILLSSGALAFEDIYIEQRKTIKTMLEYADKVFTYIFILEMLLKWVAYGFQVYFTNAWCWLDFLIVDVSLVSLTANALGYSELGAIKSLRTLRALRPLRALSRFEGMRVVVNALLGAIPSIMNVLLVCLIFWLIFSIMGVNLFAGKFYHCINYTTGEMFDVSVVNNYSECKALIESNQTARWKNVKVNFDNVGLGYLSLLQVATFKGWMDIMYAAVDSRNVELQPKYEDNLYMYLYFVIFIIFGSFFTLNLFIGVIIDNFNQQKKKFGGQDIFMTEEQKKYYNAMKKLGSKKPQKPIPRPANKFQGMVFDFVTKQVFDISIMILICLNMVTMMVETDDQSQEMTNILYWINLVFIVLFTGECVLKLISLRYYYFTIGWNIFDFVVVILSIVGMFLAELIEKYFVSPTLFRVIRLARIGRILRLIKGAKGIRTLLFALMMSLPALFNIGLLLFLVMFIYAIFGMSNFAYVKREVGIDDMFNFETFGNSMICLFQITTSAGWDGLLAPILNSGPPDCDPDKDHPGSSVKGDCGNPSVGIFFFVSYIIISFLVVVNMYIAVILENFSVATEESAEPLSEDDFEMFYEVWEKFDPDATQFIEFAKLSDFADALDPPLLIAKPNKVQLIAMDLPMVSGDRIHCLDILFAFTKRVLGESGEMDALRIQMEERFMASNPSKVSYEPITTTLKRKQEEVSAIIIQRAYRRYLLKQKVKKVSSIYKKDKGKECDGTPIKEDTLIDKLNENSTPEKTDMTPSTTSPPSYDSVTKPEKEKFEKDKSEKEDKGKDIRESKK
T1 sequence (Q62968 whole entry): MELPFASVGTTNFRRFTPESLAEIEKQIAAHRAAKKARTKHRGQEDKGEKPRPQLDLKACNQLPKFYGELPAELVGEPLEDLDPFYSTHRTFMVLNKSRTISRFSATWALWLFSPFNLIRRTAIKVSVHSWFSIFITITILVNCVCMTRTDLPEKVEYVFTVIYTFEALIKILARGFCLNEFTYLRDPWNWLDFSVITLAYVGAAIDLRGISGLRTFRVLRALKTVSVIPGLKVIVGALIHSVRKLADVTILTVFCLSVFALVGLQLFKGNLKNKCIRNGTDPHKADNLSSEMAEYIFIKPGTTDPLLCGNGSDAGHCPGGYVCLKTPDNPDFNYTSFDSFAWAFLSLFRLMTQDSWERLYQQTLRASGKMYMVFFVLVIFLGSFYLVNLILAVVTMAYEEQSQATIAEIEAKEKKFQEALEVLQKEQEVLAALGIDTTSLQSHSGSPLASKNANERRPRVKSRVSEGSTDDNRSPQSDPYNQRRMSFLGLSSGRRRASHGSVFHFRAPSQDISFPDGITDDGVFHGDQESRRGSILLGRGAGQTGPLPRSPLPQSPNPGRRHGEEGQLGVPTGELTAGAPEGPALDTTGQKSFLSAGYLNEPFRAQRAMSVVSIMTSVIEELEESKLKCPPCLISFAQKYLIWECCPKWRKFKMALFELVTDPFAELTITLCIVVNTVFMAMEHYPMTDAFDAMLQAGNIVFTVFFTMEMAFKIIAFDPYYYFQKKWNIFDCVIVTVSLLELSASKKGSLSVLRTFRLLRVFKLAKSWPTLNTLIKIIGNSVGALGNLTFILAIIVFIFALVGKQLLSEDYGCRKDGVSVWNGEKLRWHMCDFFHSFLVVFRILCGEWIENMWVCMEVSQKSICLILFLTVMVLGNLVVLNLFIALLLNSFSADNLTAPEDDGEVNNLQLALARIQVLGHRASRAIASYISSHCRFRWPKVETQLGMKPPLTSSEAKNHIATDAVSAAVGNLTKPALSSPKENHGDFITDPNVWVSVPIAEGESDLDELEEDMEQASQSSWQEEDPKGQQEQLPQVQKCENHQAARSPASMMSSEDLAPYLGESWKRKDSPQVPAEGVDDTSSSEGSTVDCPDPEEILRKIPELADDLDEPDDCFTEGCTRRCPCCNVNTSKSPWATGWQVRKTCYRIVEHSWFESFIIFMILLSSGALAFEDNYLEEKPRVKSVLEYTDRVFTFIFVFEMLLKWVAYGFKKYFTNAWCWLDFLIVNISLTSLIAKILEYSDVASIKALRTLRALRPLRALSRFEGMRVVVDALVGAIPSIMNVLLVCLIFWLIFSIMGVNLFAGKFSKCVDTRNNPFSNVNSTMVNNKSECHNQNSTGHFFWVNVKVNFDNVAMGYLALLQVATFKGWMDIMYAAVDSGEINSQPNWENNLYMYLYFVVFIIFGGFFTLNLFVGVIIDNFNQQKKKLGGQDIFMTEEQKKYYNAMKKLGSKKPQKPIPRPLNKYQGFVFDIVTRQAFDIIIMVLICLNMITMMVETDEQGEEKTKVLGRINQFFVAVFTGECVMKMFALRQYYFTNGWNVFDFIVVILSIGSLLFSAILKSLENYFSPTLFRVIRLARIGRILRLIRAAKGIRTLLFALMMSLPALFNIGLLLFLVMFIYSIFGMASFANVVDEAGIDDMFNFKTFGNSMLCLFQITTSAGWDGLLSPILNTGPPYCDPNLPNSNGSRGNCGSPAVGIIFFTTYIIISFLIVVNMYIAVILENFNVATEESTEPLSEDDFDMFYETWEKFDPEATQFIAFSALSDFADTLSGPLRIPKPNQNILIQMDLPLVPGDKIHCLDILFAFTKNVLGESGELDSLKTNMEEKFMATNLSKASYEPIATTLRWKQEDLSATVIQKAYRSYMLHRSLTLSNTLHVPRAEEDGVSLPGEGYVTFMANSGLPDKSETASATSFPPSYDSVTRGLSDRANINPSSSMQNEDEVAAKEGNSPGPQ
Sequence of D(1A) dopamine receptor (P21728 whole entry): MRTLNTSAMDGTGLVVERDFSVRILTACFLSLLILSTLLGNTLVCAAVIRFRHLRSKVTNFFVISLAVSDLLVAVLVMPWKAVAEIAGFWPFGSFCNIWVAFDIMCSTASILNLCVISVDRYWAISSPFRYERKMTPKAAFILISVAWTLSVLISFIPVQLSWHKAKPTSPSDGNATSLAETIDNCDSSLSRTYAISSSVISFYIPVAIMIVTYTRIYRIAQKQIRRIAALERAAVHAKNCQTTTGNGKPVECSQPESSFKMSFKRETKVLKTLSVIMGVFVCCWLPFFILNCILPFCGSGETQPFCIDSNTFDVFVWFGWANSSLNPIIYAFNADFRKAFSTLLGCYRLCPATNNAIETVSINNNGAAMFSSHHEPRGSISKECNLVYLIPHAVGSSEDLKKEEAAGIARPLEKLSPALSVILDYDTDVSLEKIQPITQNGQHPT
Sequence of Sigma non-opioid intracellular receptor 1 (Q99720 whole entry): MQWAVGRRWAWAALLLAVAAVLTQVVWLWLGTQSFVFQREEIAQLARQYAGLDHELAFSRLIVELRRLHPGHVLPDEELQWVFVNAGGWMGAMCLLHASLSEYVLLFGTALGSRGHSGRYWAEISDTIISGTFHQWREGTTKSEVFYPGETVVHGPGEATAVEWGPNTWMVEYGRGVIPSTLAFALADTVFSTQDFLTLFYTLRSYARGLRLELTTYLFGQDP

## COc1cc(NC(=O)c2ccc(-c3ccc(Cl)cc3)o2)cc(OC)c1
[1]
  ED50: 85 mg/kg
[2]
  Activity: 56%
[3]
  ED50: 70 mg/kg
[4]
  Activity: 9%
[5]
  ED50: > 100 mg/kg
[6]
  Activity: 14%
[7]
  Activity: 32%
[8]
  ED50: > 100 mg/kg
[9]
  ED50: > 100 mg/kg
[10]
  Activity: 25%
[11]
  Activity: 12%
[12]
  Activity: 0%
[13]
  IC50: > 10 µM
[14]
  IC50: > 10 µM
[15]
  IC50: > 10 µM
[16]
  IC50: > 10 µM
[17]
  IC50: 0.045 µM
[18]
  Activity: Active
[19]
  Vd: 11.5 L/kg
[20]
  half-life: 4.9 h
[21]
  Cmax: 0.19 µg/mL
[22]
  Tmax: 1.5 h
[23]
  IC50: > 10 µM
[24]
  Activity: inactive
[25]
  Tmax: 1.6 h
[26]
  fraction unbound: 0.013
[27]
  Activity: >70%
[28]
  Activity: 66%
[29]
  Activity: 53%
[30]
  Activity: 70%
[31]
  ED50: > 100 mg/kg
[32]
  Activity: 46%
[33]
  ED50: 100 mg/kg
[34]
  ED50: 100 mg/kg
[35]
  Activity: 0%
[36]
  IC50: > 10 µM
[37]
  IC50: > 10 µM
[38]
  IC50: > 10 µM
[39]
  IC50: > 10 µM
[40]
  IC50: > 10 µM
[41]
  IC50: 7 µM
[42]
  IC50: 1 µM
[43]
  IC50: 9.49 µM
[44]
  IC50: 7.38 µM
[45]
  IC50: 2.45 µM
[46]
  ED50: > 100 mg/kg
[47]
  IC50: > 10 µM
[48]
  IC50: > 10 µM
[49]
  IC50: > 10 µM
[50]
  IC50: > 10 µM
[51]
  IC50: > 10 µM
[52]
  IC50: > 10 µM
[53]
  IC50: > 10 µM
[54]
  IC50: > 10 µM
[55]
  IC50: > 10 µM
